Earlier results on nine molecules are cited in patent publication US20150087671A1, “LOW BURST SUSTAINED RELEASE LIPOPHILIC AND BIOLOGIC AGENT COMPOSITIONS” (Micell Technologies, Inc., priority 2012, published 2015).

Where only a bound is given, the exact number is not on record here.

For one data set, the system named is PI3K/mTOR. The conditions noted are these: read-out: IC50, dual PI3K/mTOR inhibitor (target not specified further).
Another data set deals with mTOR (Homo sapiens, UniProt P42345).
Data set [1] deals with phosphorylation of AKT T308.

In the case of `COc1ccc(-c2ccc3ncc4c(c3c2)n(-c2ccc(N3CCNCC3)c(C(F)(F)F)c2)c(=O)n4C)cn1` [NVP-BGT226], the IC50 in the data set on PI3K/mTOR was 1 nM.

Turning to `COc1ccc(COc2cc3oc(=O)c4cc(C(C)O)ccc4c3cc2OC)cc1` (stereo not shown) [Palomid 529], the GI50 (commonly the concentration that inhibits growth by half) in the data set on NCI-60 cell lines panel is below 35000 nM.

Consider `COC(=O)Nc1ccc(-c2nc(N3CCOCC3)c3cnn(C4CCN(C(=O)OC)CC4)c3n2)cc1` [WYE-354], for which the IC50 on mTOR was 5 nM.

`CO[C@H]1C[C@@H]2CC[C@@H](C)[C@@](O)(O2)C(=O)C(=O)N2CCCC[C@H]2C(=O)O[C@H]([C@H](C)C[C@@H]2CC[C@@H](OCCO)[C@H](OC)C2)CC(=O)[C@H](C)/C=C(\C)[C@@H](O)[C@@H](OC)C(=O)[C@H](C)C[C@H](C)/C=C/C=C/C=C/1C` [Everolimus, 40-O-(2-Hydroxyethyl)rapamycin]: the IC50 on mTOR is 0.63 nM.

As for `Nc1ncnc2c1c(-c1cnc3[nH]ccc3c1)nn2C1CCCC1` [PP121], the IC50 with PDGFR was 2 nM.

As to `COc1ccc(-c2cc3c(C)nc(N)nc3n([C@H]3CC[C@H](OCCO)CC3)c2=O)cn1` [PF-04691502], in data set [1], the IC50 was 7.5 nM.

On to `c1cncc(CN2CCC(n3ncc4c(N5CCOCC5)nc(-c5ccc6[nH]ccc6c5)nc43)CC2)c1` [WAY-600], for which the IC50 at mTOR is 9 nM.

`CNC(=O)Nc1ccc(-c2nc(N3CC4CCC(C3)O4)c3cnn(C4CCC5(CC4)OCCO5)c3n2)cc1` [WYE-125132]: the IC50 on mTOR was 0.19 nM.

For the molecule `CO[C@H]1C[C@@H]2CC[C@@H](C)[C@@](O)(O2)C(=O)C(=O)N2CCCC[C@H]2C(=O)O[C@H]([C@H](C)C[C@@H]2CC[C@@H](O)[C@H](OC)C2)CC(=O)[C@H](C)/C=C(\C)[C@@H](O)[C@@H](OC)C(=O)[C@H](C)C[C@H](C)/C=C/C=C/C=C/1C` [Rapamycin, rapamycin], the bioavailability (usually dose-corrected exposure relative to a reference, in per cent) (Rapamune oral tablets or solution) is reported as below 14%. Further, the blood concentrations (once daily oral dosing, immunosuppressive dose 2 or 5 mg daily) was 6 to 50 ng/mL.
